Assay results reported in paper PMC13499021, “Cellular Assays for Dynamic Quantification of Deubiquitinase Activity and Inhibition” (Journal of molecular biology, 2023).
Values joined by “and” are separate entries in the source; they are usually repeats but may differ in a detail not shown here. Equal entries are not always repeated. Where two headings read alike, the source gives them in different places. Where a SMILES comes first, the peptide text is derived from it. The star is where a group is joined. Cbz = O=C(OCc1ccccc1)*

How the values were obtained:
GFPNb^R35Q-USP7 [1] = molecular target: T1, GFPNb^R35Q-USP7 (Homo sapiens, UniProt Q93009); assay type: cell-based
GFPNb^R35Q-USP28 = assay type: cell-based
KF LSCC cells = test system: KF LSCC cells; set-up: method as in PMID 34636321; details: cited from earlier work
GFPNb^WT-USP7 = assay type: cell-based
GFPNb^R35Q-USP7 [2] = assay type: cell-based
GFPNb^E103Q-USP7 = assay type: cell-based
GFPNb^R35Q-USP7 [3] = assay type: cell-based; details: read-out: cellular IC50
USP7 = details: cited from earlier work
MM.1S cells = details: read-out: IC50, block of proliferation; cited from earlier work
proteasome = assay type: cell-based
[4] = molecular target: R-EGFP reporter (enhanced green fluorescent protein with an N-terminal arginine, made as the Ub-R-EGFP fusion)
SARS2-PL^pro = assay type: cell-based
SARS2 PL^pro = details: read-out: inhibitory concentrations (IC50); cited from earlier work
[5] = test system: homologous enzyme (PL^pro) from MERS; details: cited from earlier work
[6] = test system: homologous enzyme (PL^pro) from NL63; details: cited from earlier work
GFPNb^R35Q-USP7 [7] = molecular target: T1, GFPNb^R35Q-USP7; assay type: cell-based; remark: listed apart in the source
purified USP7 = purified USP7 and Ub-AMC substrate; reported; cited from earlier work
[8] = 10 μM compound for 16 h, USP7 fused to WT GFP nanobody

T1 sequence (Q93009 with tags, fused parts or gaps limits assumed, stated change not applied): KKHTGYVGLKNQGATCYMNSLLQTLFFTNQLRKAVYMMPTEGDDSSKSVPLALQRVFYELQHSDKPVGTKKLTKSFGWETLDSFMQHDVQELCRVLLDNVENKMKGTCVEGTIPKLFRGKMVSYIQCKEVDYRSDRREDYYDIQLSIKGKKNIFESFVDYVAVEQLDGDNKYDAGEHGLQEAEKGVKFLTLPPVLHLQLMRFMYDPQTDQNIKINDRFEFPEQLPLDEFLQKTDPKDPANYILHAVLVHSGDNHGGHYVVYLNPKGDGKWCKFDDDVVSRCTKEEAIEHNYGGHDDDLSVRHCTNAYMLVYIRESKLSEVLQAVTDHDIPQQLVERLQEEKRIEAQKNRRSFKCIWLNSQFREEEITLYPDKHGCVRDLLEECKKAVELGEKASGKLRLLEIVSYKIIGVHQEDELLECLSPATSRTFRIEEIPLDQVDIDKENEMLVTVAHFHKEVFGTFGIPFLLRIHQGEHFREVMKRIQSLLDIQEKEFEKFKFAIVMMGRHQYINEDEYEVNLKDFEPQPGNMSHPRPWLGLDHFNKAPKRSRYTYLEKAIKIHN

Cc1ccc2c(N)c(C(=O)N[C@H]3CCc4cc(N5CC6CCC(C5)N6)ccc4C3)sc2n1 [FT206]
inhibition (GFPNb^R35Q-USP7 [1]): no inhibition
dose-dependence of EGFP degradation rate (GFPNb^R35Q-USP28): little dose-dependence
inhibition (GFPNb^R35Q-USP28): potent inhibition
rate of degradation of the EGFP reporter (GFPNb^R35Q-USP28): fastest degradation
IC50 (GFPNb^R35Q-USP28; read-out: cellular IC50): 104 nM and ~104 nM
proliferation of KF LSCC cells (KF LSCC cells): inhibit proliferation

O=C(C[C@@H](C(F)F)n1ccc(F)n1)N1CCC(O)(Cn2cnc3c(cnn3-c3ccc(F)cc3)c2=O)CC1 [FT671]
change in EGFP fluorescence levels (GFPNb^WT-USP7): weak (if any) decrease
change in EGFP levels (GFPNb^R35Q-USP7 [2]): substantial decrease
change in EGFP levels (GFPNb^E103Q-USP7): substantial decrease
IC50 (GFPNb^R35Q-USP7 [3]): 14 nM
IC50 (USP7): 52 nM
IC50 (MM.1S cells): 33 nM

CC(C)C[C@@H](C=O)NC(=O)[C@H](CC(C)C)NC(=O)[C@H](CC(C)C)NC(=O)OCc1ccccc1 [MG132] (Cbz-Leu-Leu-Leu-aldehyde)
elevation of EGFP level over baseline (proteasome): over 50 fold

CC(=O)c1cc([N+](=O)[O-])c(Sc2ccc(F)cc2F)s1 [P22077]
change in EGFP fluorescence levels (GFPNb^WT-USP7; [8]): no inhibitory activity
change in EGFP levels (GFPNb^E103Q-USP7): no inhibitory activity

GFPNb E103Q-mCherry (VHH)
relative stabilization of EGFP in 293T-Ub-R-C3 cells (flow cytometry), WT nanobody-mCherry normalized to 1 (fold decrease against the WT nanobody) [4]: 100

GFPNb E103Q-mCherry-USP7 fusion
relative USP7 activity (EGFP stabilization, flow cytometry) in transfected 293T-Ub-R-C3 cells, against the WT nanobody fusion (fold less than the WT Nb fusion) [4]: 3

GFPNb R35Q-mCherry (VHH)
relative stabilization of EGFP in 293T-Ub-R-C3 cells (flow cytometry), WT nanobody-mCherry normalized to 1 (fold decrease against the WT nanobody) [4]: 50

GFPNb R35Q-mCherry-USP7 fusion
relative USP7 activity (EGFP stabilization, flow cytometry) in transfected 293T-Ub-R-C3 cells, against the WT nanobody fusion (fold less than the WT Nb fusion) [4]: 2

GRL0617
start of time dependent decrease in EGFP signal post-treatment (SARS2-PL^pro): 2 h
IC50 (SARS2 PL^pro): 2100 to 2300 nM
activity against homologous enzyme [5]: inactive
activity against homologous enzyme [6]: inactive

XL177A
change in EGFP fluorescence levels (GFPNb^WT-USP7; [8]): weak (if any) decrease
change in EGFP levels (GFPNb^R35Q-USP7 [7]): substantial decrease
change in EGFP levels (GFPNb^E103Q-USP7): substantial decrease
IC50 (GFPNb^R35Q-USP7 [1]; read-out: cellular IC50): 192 nM
IC50 (purified USP7): 0.34 nM
